Data on one compound can be found in article PMC3161034 (BMC Cancer, 2011).

Data set [1] concerns patients with solid tumors. Here is the method:
The safety endpoint was the incidence of adverse events. Tumor response rate, as assessed by Response Evaluation Criteria in Solid Tumors (RECIST) in patients with measurable disease, was an exploratory endpoint.
Enrollment of a minimum of six evaluable patients per cohort was planned. If patients discontinued the study before week 5 for any reason other than a DLT, additional patients could be enrolled to meet this goal. The selected motesanib doses (50 mg QD, 100 mg QD, 125 mg QD, and 75 mg BID) were based on the tolerability profiles of motesanib administered as monotherapy and in combination with gemcitabine that were obtained in previous studies. The BID dosing regimen is expected to achieve higher predose motesanib concentrations in the plasma than QD dosing owing to the higher total dose administered and more frequent dosing.
Treatment continued until the end of week 48 (11 cycles), or until disease progression, death, or unacceptable toxicity occurred. Motesanib administration (in cohorts 1-4) began on day 2 of week 2 of the first cycle and continued throughout the study. Patients experiencing continuous clinical benefit (stable disease or response) at the end of 48 weeks were eligible to continue motesanib monotherapy under a separate protocol.
Patients enrolled in cohort 1 received an initial dose of motesanib of 50 mg QD. If ≤ 2 patients experienced a DLT during the first 5 weeks of treatment, enrollment into cohort 2 (motesanib 75 mg BID) and cohort 3 (motesanib 125 mg QD) began simultaneously. If ≤ 2 patients in cohort 3 experienced a DLT in the first 5 weeks of treatment, the 125-mg QD dose would be considered the target once-daily dose.
All adverse events were graded by the investigator according to National Cancer Institute Common Terminology Criteria for Adverse Events (CTCAE) version 3.0. All adverse events were classified according to relatedness to treatment and seriousness. […]

The test system of data set [2] is patients with solid tumours. Also noted: method as in PMID 18971935. Conditions: in combination with gemcitabine; cited from earlier work.
Data set [3] deals with cytochrome P450 (CYP) 3A4. Conditions: cited from earlier work.
Data set [4] can be described thus: Motesanib plasma pharmacokinetics (LC-MS/MS, noncompartmental). Also noted: species or system human. The note with it: in vivo; for half-life / Tmax / AUC(0-t) / concentration at 24 h / Cmax: human; for AUC(0-t) / concentration at 24 h / Cmax: week 3; for AUC(0-t): read-out: AUC0–24, median; for concentration at 24 h: read-out: C24, median; for Cmax: read-out: Cmax, median.
Method: Plasma concentrations of motesanib were analyzed using a validated liquid chromatography/tandem mass spectrometry (LC-MS/MS) method with a lower limit of quantitation (LLOQ) of 0.2 ng/mL (Cedra Corp., Austin, TX).
Pharmacokinetic parameter estimates were calculated according to standard noncompartmental methods using WinNonlin software (version 5.1.1; Pharsight Corporation, Mountain View, CA) and summarized by dose level. […] For the BID cohort, AUC0—24 values for motesanib were determined by 2 × AUC0—12. The terminal elimination rate constant (λZ) was determined by linear regression of the natural logarithms of plasma concentrations versus time during the terminal phase; the corresponding t1/2 was calculated.

The test system of data set [5] is patients with advanced solid tumors. Also noted: method as in PMID 17557949. The note with it: monotherapy; cited from earlier work.
The next data set has as its system CYP1A2. The note with it: cited from earlier work.
Where [6] appears, read: 125 mg QD motesanib + 100 mg QD erlotinib + gemcitabine.
Setting [7] is: 125 mg QD motesanib + 150 mg QD erlotinib.

Read-outs that look alike come from different tables or passages of the source.

One may read the Tmax as the time at which the peak concentration occurs. For orientation: Cmax means the peak of the concentration-time curve. Turning to `CC1(C)CNc2cc(NC(=O)c3cccnc3NCc3ccncc3)ccc21` [motesanib], in data set [1] (human, in vivo, 5 weeks), the “Patients with dose-limiting toxicities, all cohorts” value is recorded as 11 patients. Further, the “Maximum tolerated dose (MTD)” value in data set [1] (in combination with erlotinib only (150 mg QD)) was 125 mg QD; in data set [1] (in combination with gemcitabine (1000 mg/m^2 weekly) and erlotinib (100 mg QD)) it was 100 mg QD; in data set [5], 125 mg QD. The Target dose in data set [2] is 125 mg QD. Besides, the “Effect on CYP3A4” value in data set [3] is reported as “inhibitor”. Also, the half-life in data set [4] (100 mg, read-out: Mean estimated terminal elimination half-life (t1/2, z)) was 4.8 to 8.6 h; in data set [4] (150 mg), 6 to 7.7 h. The Tmax in data set [4] (100 mg, read-out: Overall median tmax) is 0.6 to 2 h; in data set [4] (150 mg), 2 h. Besides, the AUC(0-t) in data set [4] (setting [6]) came to 4.77 µg·h/mL; in data set [4] (setting [7]) it was 3.12 µg·h/mL. Further, the concentration at 24 h worked out at 0.037 µg/mL in data set [4] (setting [6]) and 0.0447 µg/mL in data set [4] (setting [7]). Further, the Cmax in data set [4] (setting [6]) turned out to be 0.655 µg/mL; in data set [4] (setting [7]), 0.443 µg/mL. The “Effect of combination on motesanib pharmacokinetics” value in data set [4] is recorded as “not markedly affected”. The “Effect on CYP1A2” value in the data set with CYP1A2 is reported as “inducer”.
